Values of other authors in article PMC6912862 (ACS Medicinal Chemistry Letters, 2019).
Several values for one entry are separate records, joined by “and”; a condition that tells them apart may be missing. Equal values may be shown once.

Legend:
[1] = system: HeLa cells; conditions: cisplatin comparison
[2] = system: HeLa xenograft; conditions: same conditions (2.0 mg/kg), p < 0.05

Structure (SMILES): N.N.[Cl][Pt][Cl] [cisplatin, cis-[PtCl2(NH3)2]]
- Cell accumulation of Pt [1]: 4.11 ± 0.59 (nmol of Pt)/10^6 cells
- Inhibition of tumor growth (IR), cisplatin-treated groups [2]: 35.2% and 35.2 ± 5.8%
